According to publication PMC4015918, “Conjugation to a SMAC mimetic potentiates sigma-2 ligand induced tumor cell death in ovarian cancer” (Molecular Cancer, 2014):

Key:
[1] = test system: SKOV3 cells; experiment: Annexin V binding (apoptosis), flow cytometry; type: cell-based; conditions: SKOV3 cells, 3, 6 and 10 μM, 16 hours
Procedure: SKOV3 cells were treated with different concentrations of SW IV-134 (3 μM, 6 μM, and 10 μM) for 16 hours. Staining was performed using the Annexin V Apoptosis Detection Kit (BioLegend, San Diego, CA) according to the manufacturer’s instructions. The apoptosis rate was determined by flow cytometry (FACSCalibur, BD Biosciences, San Jose, CA).
Supplementary file 1476-4598-13-50-S4.pdf: Additional file 4: Figure S3 Flow cytometric determination of apoptosis. SKOV3 cells were treated with increasing concentrations of SW IV-134. Untreated cells served as a negative staining control. The cells were then assessed for apoptosis induction by flow cytometry following staining with propidium iodide/Annexin V. Click here for file

[2] = test system: TNFα mRNA; experiment: Quantitative RT-PCR of TNFα mRNA; type: cell-based; conditions: SKOV3 cells, 1 μM and 3 μM, 4-24 hours, normalized to GAPDH; maximal at 24 hours
Procedure: Figure 5 SW IV-134 induces activation of the TNFα-dependent extrinsic death pathway. (A) Quantitative real-time PCR analysis of TNFα mRNA expression was done on RNA samples derived from SKOV3 cells treated with SW IV-134 (1 μM and 3 μM) for indicated time periods. All values were normalized to a GAPDH internal control (p < 0.0001, one-way ANOVA). (B) SKOV3 cells were treated with SW IV-134 (1 μM and 3 μM) and cell-culture supernatants were collected at 4, 12, and 24 hours after treatment, and subsequently examined by anti-TNFα ELISA according to manufacturer’s instructions (p < 0.0001, one-way ANOVA). (C) SKOV3 cells were treated with SW IV-134 at indicated doses either alone or in the presence of anti-TNFα blocking antibody for 18 hours. Cell viability was determined as described in the experimental methods (p < 0.019, Student’s t-test).
SKOV3 cells were treated with SW IV-134 (1 μM, 3 μM) or vehicle-control for 4 hours, 12 hours, and 24 hours. At the end of each treatment, cells were harvested and total RNA was isolated using TRIzol reagent (Invitrogen, Grand Island, NY) and RT-PCR performed as per the protocol described before. Briefly, one microgram of RNA from each sample was reverse transcribed to cDNA with Retroscript (Ambion, Austin, TX). […] TNFα data were normalized for expression with GAPDH, and results were expressed as fold change over untreated controls.

## COc1ccc(C)cc1NC(=O)OC1CC2CCCC(C1)N2CCCCCCCCCCN[C@@H](C)C(=O)N[C@H](C(=O)N1CCC[C@H]1C(=O)N[C@@H]1CCCc2ccccc21)C(C)(C)C (some centres unmarked) [SW IV-134]
[1]
  Annexin V binding: increased Annexin V binding relative to the untreated control cells in a dose dependent manner
[2]
  Increase in TNFα mRNA levels compared to untreated cells: 20-50 fold
